Reference: patent publication US10736913B1, “Use of inosine for cancer immunotherapy” (IMMUNOSPARKLE BIOSCIENCE LLC, priority 2019, dated 2020)
“Also recorded” adds a separate entry of the source.

Key:
[1] = system: MHC-I (H2kb) on B16 cells; assay: Flow cytometry of membrane MHC-I (H2kb) expression; assay type: cell-based, murine; conditions: inosine at 500
Procedure: B16 cells were stained for flow cytometry to determine the membrane MHC-I expression level.
For MHC-I expression flow analysis on the tumor cell, one million cells per condition were stained with the PE anti-mouse H-2Kb antibody (Biolegend) diluted in PBS plus 2% FBS and kept for 30 min on ice. Matched isotype control Ab was performed as a control.

B16 tumors = assay: B16 melanoma tumor model in mice (tumor volume, survival); conditions: B16 tumor-bearing C57BL/6 mice; inosine 400 mg/kg/day oral from day 4; anti-CTLA4 100 μg + anti-PD-1 200 μg i.p. days 7, 10, 13, 16
Procedure: B16 cells were injected subcutaneously into eight-week-old female C57BL/6 mice (2×10^5/mouse). Anti-CTLA4 antibody (100 μg per mouse) and anti-PD-1 antibody (200 μg per mouse) were injected i.p on days 7, 10, 13 and 16. 400 mg/kg body weight of inosine per day was orally administered to mice from day 4.
(§1) All the cell lines were confirmed to be mycoplasma free. Cells were cultured using DMEM (Corning) with 10% fetal bovine serum (Corning) and 1% Pen/Strep (Life Technologies). Cells were incubated in an incubator maintained at 37° C. and 5% CO2. 75-80% of confluent cells were harvested for orthotopic injection.
(§2) For the melanoma model, 2×10^5 B16 or B16-GM cells were harvested for orthotopic injection into the subcutaneous (s.c.) of C57BL/6J mice (6-8 weeks) using 0.25% Trypsin (Corning) and suspended in DPBS (Gibco).
(§3) Treatments were given as single agents or in combination with the following regimen. Inosine (Sigma-Aldrich) was dissolved in sterilized water to yield a concentration of 40 mg/ml, and administered by oral gavage once a day at 400 mg/kg body weight. Treatment was initiated on day 4 and ended on day 21 post tumor implant. Control groups received vehicle (water) by oral gavage. […] Tumors were measured every third day with a caliper, and measurements were assessed manually by assessing the longest dimension (length) and the longest perpendicular dimension (width). […]

[2] = system: CD4+ and CD8+ T cells in B16 tumors; assay: Flow cytometry of tumor-infiltrating T lymphocytes in B16 tumors; assay type: in vivo, C57BL/6 mice; conditions: n=5 tumors
Procedure: Tumors from the indicated treatment group were mechanically minced for the isolation of infiltrating lymphocytes. Cells were counted and stained for flow cytometry to determine the percentage of CD4^+ and CD8^+ T lymphocytes in total CD45^+ immune cells.
Results are shown as mean±SEM (* P<0.05; ** P<0.01) and statistics were calculated using the unpaired t-test with Welch's correction.
Mouse tumor samples were minced with scissors before incubation with dissociation buffer (2 mg/ml collagenase type A, 0.02 mg/ml DNase in RPMI1640 containing 5% FBS, PenStrep) with agitation at 37° C. for 45 min. Tumor samples were homogenized by repeated pipetting and filtered through a 70-μm nylon filter (BD Biosciences) in RPMI supplemented with 10% FBS to generate single-cell suspensions. Cell suspensions were washed once with complete RPMI. After lysis of red blood cells, single-cell suspensions were blocked with anti-CD16/32 (Biolegend) for 20 min on ice and then incubated with appropriate antibodies for 30 min on ice: anti-CD45-APC-Cy7, CD3-FITC, CD8-PercP-Cy5.5, CD4-PE. Dead cells and doublets were excluded on the basis of forward and side scatter and Fixable Viability Dye eFluor 450 (eBioscience). Flow cytometry was performed on FACSCanto II (BD Biosciences), and data were analyzed using FlowJo (TreeStar).

B16 tumor cells [3] = assay: MTT cell proliferation assay; assay type: cell-based, murine; conditions: B16 cells in vitro; inosine 10, 50, 200 μM; 0-96 h
Procedure: MTT assays were used to determine the cell viability of B16 tumor cells treated with control vehicle; the concentration of inosine administered is indicated, where “Ino-10” means 10 μM Inosine; “Ino-50” means 50 μM Inosine and “Ino-200” means 200 μM Inosine.
Cell proliferation ability was examined at 0, 24, 48, 72 h and 96 h using a Cell Proliferation Reagent Kit I (MTT; Sigma) according to the manufacturer's instruction. Cells were seeded in a 96-well plate in triplicate at a concentration of 2×10^3 cells/well. On the indicated day, the medium was removed and the MTT solution was added to the wells. Four hours later, DMSO was added and the cells were further incubated for 10 min with gentle shaking at 37° C. Finally, the optical density of each well was measured using a microplate reader at 550 nm.

4T1 tumors = assay: 4T1 breast cancer tumor model in mice (tumor volume, weight); assay type: in vivo; conditions: 4T1 tumor-bearing Balb/c mice; inosine 400 mg/kg/day oral day 4 to 21; anti-CTLA4 100 μg + anti-PD-1 200 μg i.p. days 7, 10, 13, 16
Procedure: 4T1 cells were injected into the mammary fat pad of eight-week-old female Balb/c mice (2×10^5/mouse). […] Results are shown as mean±SEM. (*** indicates P<0.001).
4T1 cells were injected into the mammary fat pad of eight-week-old female Balb/c mice (2×10^5/mouse). […] Results are shown as mean±SEM. (** indicates P<0.01)

[4] = system: H2k1, H2d1, Stat1, Stat3, Irf1 mRNA in B16 cells; assay: Reverse transcription quantitative PCR of antigen presentation-related and IFN signaling genes; assay type: cell-based, murine; conditions: inosine at 500
Procedure: Tumor cells cDNA was prepared using 1 μg RNA with the qScript cDNA Synthesis Kit (Bio-Rad). SYBR green-based qPCR was performed using murine primers to H2k1, H2d1, Stat1, Stat3, and Irf1. Relative copy number was determined by calculating the fold-change difference in the gene of interest relative to 18sRNA (ΔCt=Ct gene of interest−Ct 18sRNA) and reported as relative mRNA expression (ΔΔCt=2^−(ΔCt sample−ΔCt control)) or fold change. qPCR was performed on an Applied Biosystems 7300 machine.

B16 tumor cells [5] = assay: Cell apoptosis assay (Annexin V / 7-AAD flow cytometry); assay type: cell-based, murine; conditions: B16 cells in vitro; inosine same concentrations as FIG. 2A; 48 h
Procedure: Tumor cells were seeded in a 6-well plate and grown for 24 h. Cells were then treated with control (vehicle) or 1, 10, 50, 100 μM inosine. After 48 h of treatment, cells were harvested by trypsinization, resuspended at 10^6 cells/ml in 1× Annexin V Binding Buffer (BD Biosciences), and 100 μl (10^5 cells) were added to each FACS tube. Cells were stained with 7-AAD (5 μl/100 μl, BD Biosciences, to assess cell death), and APC-conjugated Annexin V (5 μl/100 μl, BD Biosciences, to assess apoptosis) for 30 min and analyzed by BD FACSCanto II. FACS data were acquired using FACSDiva (BD Biosciences) and analyzed using FlowJo software (Tree Star) and the percentage of APC^+ cells obtained.

[6] = background; cited from earlier work
B16-GM tumors = assay: B16-GM metastatic melanoma tumor model in mice (tumor volume, weight, lung metastasis, survival)
Procedure: B16-GM cells were injected subcutaneously into eight-week-old female C57BL/6 mice (2×10^5/mouse). Anti-CTLA4 antibody (100 μg per mouse) and anti-PD-1 antibody (200 μg per mouse) were injected i.p on days 7, 10, 13 and 16. 400 mg/kg of inosine per day was orally administered to mice from day 4 to day 21.
as §1, §2, §3

SMILES: OC[C@H]1O[C@@H](n2cnc3c(O)ncnc32)[C@H](O)[C@@H]1O [inosine, 9-[(2R,3R,4S,5R)-3,4-dihydroxy-5-(hydroxymethyl)oxolan-2-yl]-1H-purin-6-one]
- membrane MHC-I (H2kb) expression [1]: enhances the expression of MHC-I; also recorded: increases the membrane protein level of MHC-I
- tumor volume / tumor growth (B16 tumors): inhibited tumor growth in vivo; also recorded: enhanced the antitumor efficacy of ICB
- CD8+ T cell population in tumors [2]: increased the cytotoxic CD8^+ T infiltration
- proliferation / cell viability (MTT) (B16 tumor cells [3]): didn't inhibit tumor cell proliferation; also recorded: doesn't inhibit the proliferation
- tumor volume / tumor growth (4T1 tumors): does not significantly affect tumor growth
- relative mRNA expression of antigen presentation-related genes (H2k1, H2d1) and IFN signaling genes (Stat1, Stat3, Irf1) [4]: stimulates interferon signaling and antigen presentation-related genes; also recorded: increases the expression of antigen presentation-related genes and IFN signaling genes
- apoptotic tumor cells (B16 tumor cells [5]): didn't inhibit tumor cell proliferation and promote apoptosis; also recorded: doesn't induce the apoptosis
- half-life [6]: approximately 15 h
- tumor volume / tumor growth (B16-GM tumors; B16-GM tumor-bearing C57BL/6 mice, inosine 400 mg/kg/day oral day 4 to 21, anti-CTLA4 100 μg + anti-PD-1 200 μg i.p. days 7, 10, 13, 16): reduced tumor size
- lung metastasis (metastatic nodules) (B16-GM tumors; B16-GM tumor-bearing mice, day 18): significant reduction in lung metastasis
